Reference: ChEMBL document CHEMBL3243996, “[1-Deaminopenicillamine,4-threonine]oxytocin, a potent inhibitor of oxytocin” (J Med Chem, 1978)
Calls of active or inactive are those of the source. The rule behind the calls is not given here. Starred links: 1 amine or outer side, 2 acyl side, 3 side chain; linkers in the order of their positions; H or OH if unused. Positions of bridges follow the written chain, without caps; N, C: chain ends. Residues, ends and D or L forms follow the SMILES beside them. X2 = O=C(CC1(S[*:2])CCCCC1)[*:1]; X1 = CC(C)(CC(=O)[*:1])S[*:2]

Legend:
[1] = molecular target: T1, Oxytocin receptor (Rattus norvegicus, UniProt P70536); experiment: (§1) Antagonist activity at oxytocin receptor in rat uterus by Schild's method in absence of Mg2+; format: tissue-based; details: read-out: pA2 (converted)
T1 sequence (P70536 whole entry): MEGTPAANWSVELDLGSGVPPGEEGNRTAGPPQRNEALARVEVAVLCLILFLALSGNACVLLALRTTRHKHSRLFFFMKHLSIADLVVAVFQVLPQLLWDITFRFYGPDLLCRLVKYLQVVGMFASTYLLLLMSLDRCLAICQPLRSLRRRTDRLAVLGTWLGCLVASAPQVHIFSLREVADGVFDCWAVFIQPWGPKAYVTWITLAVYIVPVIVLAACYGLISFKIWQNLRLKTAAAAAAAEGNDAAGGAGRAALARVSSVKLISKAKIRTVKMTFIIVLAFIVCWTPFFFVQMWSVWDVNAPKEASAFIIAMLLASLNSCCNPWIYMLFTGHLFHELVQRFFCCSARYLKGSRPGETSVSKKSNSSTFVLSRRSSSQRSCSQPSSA

[2] = molecular target: T2, Oxytocin receptor (Rattus norvegicus) (UniProt P70536); experiment: as §1; format: tissue-based
T2 sequence (whole entry): T1 sequence (P70536 whole entry)

[3] = molecular target: T2, Oxytocin receptor (Rattus norvegicus); experiment: (§2) Antagonist activity at oxytocin receptor in rat uterus by average effective molar concentration based analysis; format: tissue-based
[4] = molecular target: T1, Oxytocin receptor; experiment: as §2; format: tissue-based; details: read-out: pA2 (converted)
[5] = (§3) Antagonist activity at rat vasopressin receptor
[6] = species on record: Rattus norvegicus; experiment: Agonist activity at rat vasopressin receptor
[7] = molecular target: T2, Oxytocin receptor (Rattus norvegicus); experiment: Agonist activity at oxytocin receptor in rat uterus; format: tissue-based
[8] = species on record: Rattus norvegicus; experiment: as §3

SMILES	Kb [1] [nM]	A2 [2] [×10⁻⁸ M]	Kb [4] [nM]	also measured
CC[C@H](C)[C@@H]1NC(=O)[C@H](Cc2ccc(O)cc2)NC(=O)CC(C)(C)SSC[C@@H](C(=O)N2CCC[C@H]2C(=O)N[C@@H](CC(C)C)C(=O)NCC(N)=O)NC(=O)[C@H](CC(N)=O)NC(=O)[C@H]([C@@H](C)O)NC1=O (stereo in doubt; 1b) [listing 1 of 2 here]	25.7	–	–	–
CC[C@H](C)[C@@H]1NC(=O)[C@H](Cc2ccc(O)cc2)NC(=O)CC(C)(C)SSC[C@@H](C(=O)N2CCC[C@H]2C(=O)N[C@@H](CC(C)C)C(=O)NCC(N)=O)NC(=O)[C@H](CC(N)=O)NC(=O)[C@H]([C@@H](C)O)NC1=O (stereo in doubt; 1b) [listing 2 of 2 here]	–	4.3	–	–
CC[C@H](C)[C@@H]1NC(=O)[C@H](Cc2ccc(O)cc2)NC(=O)CC(C)(C)SSC[C@@H](C(=O)N2CCC[C@H]2C(=O)N[C@@H](CC(C)C)C(=O)NCC(N)=O)NC(=O)[C@H](CC(N)=O)NC(=O)[C@H](CCC(N)=O)NC1=O (YIQNCPLG-NH2; linker N-5 via X1)	72.4	9.1	115	A2 [3]: 11.6 ×10⁻⁸ M; pA2 [5]: 6.27
CC[C@H](C)[C@@H]1NC(=O)[C@H](Cc2ccc(O)cc2)NC(=O)[C@@H](N)C(C)(C)SSC[C@@H](C(=O)N2CCC[C@H]2C(=O)N[C@@H](CC(C)C)C(=O)NCC(N)=O)NC(=O)[C@H](CC(N)=O)NC(=O)[C@H](CCC(N)=O)NC1=O	–	–	138	–
CC[C@H](C)[C@@H]1NC(=O)[C@H](Cc2ccc(O)cc2)NC(=O)CC2(CCCCC2)SSC[C@@H](C(=O)N2CCC[C@H]2C(=O)N[C@@H](CC(C)C)C(=O)NCC(N)=O)NC(=O)[C@H](CC(N)=O)NC(=O)[C@H](CCC(N)=O)NC1=O (YIQNCPLG-NH2; linker N-5 via X2)	37.2	–	37.2	A2 [3]: 3.7 ×10⁻⁸ M; Activity [8]: Active

Continued, in another order:

Kb [1] [nM]	A2 [2] [×10⁻⁸ M]	Kb [4] [nM]	SMILES	also measured
–	4	–	CC[C@H](C)[C@@H]1NC(=O)[C@H](Cc2ccc(O)cc2)NC(=O)CC(C)(C)SSC[C@@H](C(=O)N2CCC[C@H]2C(=O)N[C@@H](CC(C)C)C(=O)NCC(N)=O)NC(=O)[C@H](CC(N)=O)NC(=O)[C@H]([C@@H](C)O)NC1=O (stereo in doubt; 1a) [listing 1 of 2 here]	Activity [6]: inactive; Activity [7]: inactive
34.7	–	–	CC[C@H](C)[C@@H]1NC(=O)[C@H](Cc2ccc(O)cc2)NC(=O)CC(C)(C)SSC[C@@H](C(=O)N2CCC[C@H]2C(=O)N[C@@H](CC(C)C)C(=O)NCC(N)=O)NC(=O)[C@H](CC(N)=O)NC(=O)[C@H]([C@@H](C)O)NC1=O (stereo in doubt; 1a) [listing 2 of 2 here]	pA2 [5]: 6.67
